In patent publication US8153653B2, “Amido-tropane derivatives” (Hoffmann-La Roche Inc., priority 2010, dated 2012):
pIC50: −log10 of the molar value.

Target: T1, mGlyT-1b (Mus musculus, UniProt P28571)
T1 construct: host or cells: Flp-in-CHO cells, stably transfected
T1 sequence (P28571 1-651 isoform P28571-2): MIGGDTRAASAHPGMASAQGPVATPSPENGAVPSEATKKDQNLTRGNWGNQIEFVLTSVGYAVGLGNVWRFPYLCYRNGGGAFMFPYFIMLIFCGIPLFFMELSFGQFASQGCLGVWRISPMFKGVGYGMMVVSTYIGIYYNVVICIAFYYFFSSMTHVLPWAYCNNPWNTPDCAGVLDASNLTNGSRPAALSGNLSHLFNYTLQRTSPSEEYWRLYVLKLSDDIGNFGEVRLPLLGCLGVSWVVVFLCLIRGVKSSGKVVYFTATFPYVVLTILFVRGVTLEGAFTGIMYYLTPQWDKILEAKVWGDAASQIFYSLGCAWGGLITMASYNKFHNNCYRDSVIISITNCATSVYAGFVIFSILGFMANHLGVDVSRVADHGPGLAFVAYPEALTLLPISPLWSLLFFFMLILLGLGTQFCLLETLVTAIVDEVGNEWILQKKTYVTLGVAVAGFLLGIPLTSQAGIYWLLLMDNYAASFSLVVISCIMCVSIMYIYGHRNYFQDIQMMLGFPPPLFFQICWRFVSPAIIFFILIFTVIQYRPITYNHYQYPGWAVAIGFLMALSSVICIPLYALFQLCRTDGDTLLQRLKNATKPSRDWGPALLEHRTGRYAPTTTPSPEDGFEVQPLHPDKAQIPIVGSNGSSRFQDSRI
Experiment: Glycine Uptake Inhibition Assay (mGlyT-1b)
Format: cell-based
Settings: [3H]-glycine uptake in Flp-in-CHO cells stably transfected with mGlyT-1b cDNA; 20 min preincubation at 22° C.
Experimental: DMEM complete medium: Nutrient mixture F-12 (Gibco Life-technologies), fetal bovine serum (FBS) 5%, (Gibco life technologies), Penicillin/Streptomycin 1% (Gibco life technologies), Hygromycin 0.6 mg/ml (Gibco life technologies), Glutamine 1 mM Gibco life technologies) Uptake buffer (UB): 150 mM NaCl, 10 mM Hepes-Tris, pH 7.4, 1 mM CaCl2, 2.5 mM KCl, 2.5 mM MgSO4, 10 mM (+) D-glucose. Flp-in™-CHO (Invitrogen Cat n° R758-07) cells stably transfected with mGlyT1b cDNA.
Glycine Uptake Inhibition Assay (mGlyT-1b)
On day 1 mammalian cells, (Flp-in™-CHO), transfected with mGlyT-1b cDNA, were plated at the density of 40,000 cells/well in complete F-12 medium, without hygromycin in 96-well culture plates. On day 2, the medium was aspirated and the cells were washed twice with uptake buffer (UB). The cells were then incubated for 20 min at 22° C. with either (i) no potential competitor, (ii) 10 mM non-radioactive glycine, (iii) a concentration of a potential inhibitor. A range of concentrations of the potential inhibitor was used to generate data for calculating the concentration of inhibitor resulting in 50% of the effect (e.g. IC50, the concentration of the competitor inhibiting glycine uptake of 50%). A solution was then immediately added containing [^3H]-glycine 60 nM (11-16 Ci/mmol) and 25 μM non-radioactive glycine. The plates were incubated with gentle shaking and the reaction was stopped by aspiration of the mixture and washing (three times) with ice-cold UB. The cells were lysed with scintillation liquid, shaken 3 hours and the radioactivity in the cells was counted using a scintillation counter.

Row | SMILES | pIC50
1 | COc1cc(C(F)(F)F)cc(SC)c1C(=O)N[C@@]1(c2ccccc2)CC[C@@H]2CC[C@H]1N2C (racemic) [Example 1, 2-Methoxy-N-((1RS,2RS,5SR)-8-methyl-2-phenyl-8-aza-bicyclo[3.2.1]oct-2-yl)-6-methylsulfanyl-4-trifluoromethyl-benzamide] | 7.85
2 | COc1cc(C(F)(F)F)cc(SC)c1C(=O)N[C@@]1(c2ccccc2)CC[C@@H]2CC[C@H]1N2C (racemic) [Example 3, 2-Methoxy-N-((1R,2R,5S)-8-methyl-2-phenyl-8-aza-bicyclo[3.2.1]oct-2-yl)-6-methylsulfanyl-4-trifluoromethyl-benzamide] | 8.10
3 | CN1[C@H]2CC[C@@H]1[C@](NC(=O)c1ccc(C(F)(F)F)cc1C1CC1)(c1ccccc1)CC2 (racemic) [Example 4, 2-Cyclopropyl-N-((1RS,2RS,5SR)-8-methyl-2-phenyl-8-aza-bicyclo[3.2.1]oct-2-yl)-4-trifluoromethyl-benzamide] | 8.10
4 | CCc1cc(C(F)(F)F)cc(OC)c1C(=O)N[C@@]1(c2ccccc2)CC[C@@H]2CC[C@H]1N2C (racemic) [Example 13, 2-Ethyl-6-methoxy-N-((1RS,2RS,5SR)-8-methyl-2-phenyl-8-aza-bicyclo[3.2.1]oct-2-yl)-4-trifluoromethyl-benzamide] | 7.85
5 | CCc1cc(C(F)(F)F)ccc1C(=O)N[C@]1(c2ccccc2)CC[C@H]2CC[C@@H]1N2C (stereo in doubt) [Example 5, 2-Ethyl-N-((1S,2S,5R) or (1R,2R,5S)-8-methyl-2-phenyl-8-aza-bicyclo[3.2.1]oct-2-yl)-4-trifluoromethyl-benzamide] | 7.72
6 | CCc1cc(C(F)(F)F)ccc1C(=O)N[C@@]1(c2ccccc2)CC[C@@H]2CC[C@H]1N2C (stereo in doubt) [Example 6, 2-Ethyl-N-((1R,2R,5S) or (1S,2S,5R)-8-methyl-2-phenyl-8-aza-bicyclo[3.2.1]oct-2-yl)-4-trifluoromethyl-benzamide] | 7.51
7 | COc1cc(C(F)(F)F)cc(C)c1C(=O)N[C@@]1(c2ccccc2)CC[C@@H]2CC[C@H]1N2C (stereo in doubt) [Example 7, 2-Methoxy-6-methyl-N-((1RS,2RS,5SR)-8-methyl-2-phenyl-8-aza-bicyclo[3.2.1]oct-2-yl)-4-trifluoromethyl-benzamide] | 8.22
8 | COc1cc(C(F)(F)F)cc(C)c1C(=O)N[C@]1(c2ccccc2)CC[C@H]2CC[C@@H]1N2C (stereo in doubt) [Example 8, 2-Methoxy-6-methyl-N-((1S,2S,5R) or (1R,2R,5S)-8-methyl-2-phenyl-8-aza-bicyclo[3.2.1]oct-2-yl)-4-trifluoromethyl-benzamide] | 7.70
9 | COc1cc(C(F)(F)F)cc(C)c1C(=O)N[C@@]1(c2ccccc2)CC[C@@H]2CC[C@H]1N2C (stereo in doubt) [Example 9, 2-Methoxy-6-methyl-N-((1R,2R,5S) or (1S,2S,5R)-8-methyl-2-phenyl-8-aza-bicyclo[3.2.1]oct-2-yl)-4-trifluoromethyl-benzamide] | 7.70
10 | COc1cc(C(F)(F)F)cc(C2CC2)c1C(=O)N[C@@]1(c2ccccc2)CC[C@@H]2CC[C@H]1N2C (stereo in doubt) [Example 10, 2-Cyclopropyl-6-methoxy-N-((1RS,2RS,5SR)-8-methyl-2-phenyl-8-aza-bicyclo[3.2.1]oct-2-yl)-4-trifluoromethyl-benzamide] | 8.40
11 | COc1cc(C(F)(F)F)cc(C2CC2)c1C(=O)N[C@]1(c2ccccc2)CC[C@H]2CC[C@@H]1N2C (stereo in doubt) [Example 11, 2-Cyclopropyl-6-methoxy-N-((1S,2S,5R) or (lR,2R.5S)-8-methyl-2-phenyl-8-aza-bicyclo[3.2.1]oct-2-yl)-4-trifluoromethyl-benzamide] | 8.22
12 | COc1cc(C(F)(F)F)cc(C2CC2)c1C(=O)N[C@@]1(c2ccccc2)CC[C@@H]2CC[C@H]1N2C (stereo in doubt) [Example 12, 2-Cyclopropyl-6-methoxy-N-((1R,2R,5S) or (1S,2S,5R)-8-methyl-2-phenyl-8-aza-bicyclo[3.2.1]oct-2-yl)-4-trifluoromethyl-benzamide] | 8.22
13 | COc1cc(C(F)(F)F)cc(SC)c1C(=O)N[C@]1(c2ccccc2)CC[C@H]2CC[C@@H]1N2C [Example 2, 2-Methoxy-N-((1S,2S,5R)-8-methyl-2-phenyl-8-aza-bicyclo[3.2.l]oct-2-yl)-6-methylsulfanyl-4-trifluoromethyl-benzamide] | 7.68
